ChEMBL document CHEMBL4673353, “Switching a Xanthine Oxidase Inhibitor to a Dual-Target Antagonist of P2Y and P2Y as an Oral Antiplatelet Agent with a Wider Therapeutic Window in Rats than Ticagrelor” (J Med Chem, 2020)

Columns and labels:
Plasma = experiment: Antiplatelet activity in rabbit platelet-rich plasma assessed as inhibition of ADP-induced platelet aggregation preincubated for 5 mins followed by ADP addition measured every 1 min for up to 6 mins by microplate reader analysis; type: functional, cell-free; details: Oryctolagus cuniculus
P2Y purinoceptor 12 = P2Y purinoceptor 12 (Homo sapiens, UniProt Q9H244); experiment: Antagonist activity at P2Y12 in human whole blood assessed as suppression of ADP-induced decrease in PGE1-induced VASP phosphorylation measured after 10 mins by immunostaining based flow cytometric analysis; type: tissue-based
[1] = Antagonist activity at P2Y1 in rabbit platelet-rich plasma assessed as inhibition of ADP-induced increase in intracellular Ca2+ concentration preincubated for 5 mins followed by ADP addition and measured for 3 mins by fluo4 dye-based fluorescence assay; type: cell-free; details: Oryctolagus cuniculus
[2] = Toxicity in Sprague-Dawley rat model of tail-snip bleeding assessed as bleeding time at 10 mg/kg, po administered via gavage as single dose measured within 2 hrs post tail snip (reference value: 17.69 min); type: organism-based; details: in vivo
Rattus norvegicus = experiment: Antithrombotic activity in FeCl3-induced Sprague-Dawley rat model of arterial thrombosis assessed as reduction in thrombus weight at 10 mg/kg, po qd administered as single dose for 7 days and measured 2 hrs post last dose; type: functional; parameters: scale not given: the % may be the effect or the level left; details: time 7 day
[3] = Toxicity in Sprague-Dawley rat model of tail snip bleeding assessed as bleeding weight at 10 mg/kg, po administered via gavage as single dose measured within 2 hrs post tail snip(reference value: 0.08 g); type: organism-based; details: in vivo
[4] = target: Xanthine dehydrogenase/oxidase (Bos taurus, UniProt P80457); experiment: Inhibition of bovine xanthine oxidase assessed as reduction in uric acid formation at 10 uM using xanthine as substrate preincubated for 15 mins followed by substrate addition measured at 30 sec interval for upto 2 mins by spectrophotometric analysis relative to control; details: cattle, time 17 min
Xanthine dehydrogenase/oxidase, sequence (P80457 whole entry): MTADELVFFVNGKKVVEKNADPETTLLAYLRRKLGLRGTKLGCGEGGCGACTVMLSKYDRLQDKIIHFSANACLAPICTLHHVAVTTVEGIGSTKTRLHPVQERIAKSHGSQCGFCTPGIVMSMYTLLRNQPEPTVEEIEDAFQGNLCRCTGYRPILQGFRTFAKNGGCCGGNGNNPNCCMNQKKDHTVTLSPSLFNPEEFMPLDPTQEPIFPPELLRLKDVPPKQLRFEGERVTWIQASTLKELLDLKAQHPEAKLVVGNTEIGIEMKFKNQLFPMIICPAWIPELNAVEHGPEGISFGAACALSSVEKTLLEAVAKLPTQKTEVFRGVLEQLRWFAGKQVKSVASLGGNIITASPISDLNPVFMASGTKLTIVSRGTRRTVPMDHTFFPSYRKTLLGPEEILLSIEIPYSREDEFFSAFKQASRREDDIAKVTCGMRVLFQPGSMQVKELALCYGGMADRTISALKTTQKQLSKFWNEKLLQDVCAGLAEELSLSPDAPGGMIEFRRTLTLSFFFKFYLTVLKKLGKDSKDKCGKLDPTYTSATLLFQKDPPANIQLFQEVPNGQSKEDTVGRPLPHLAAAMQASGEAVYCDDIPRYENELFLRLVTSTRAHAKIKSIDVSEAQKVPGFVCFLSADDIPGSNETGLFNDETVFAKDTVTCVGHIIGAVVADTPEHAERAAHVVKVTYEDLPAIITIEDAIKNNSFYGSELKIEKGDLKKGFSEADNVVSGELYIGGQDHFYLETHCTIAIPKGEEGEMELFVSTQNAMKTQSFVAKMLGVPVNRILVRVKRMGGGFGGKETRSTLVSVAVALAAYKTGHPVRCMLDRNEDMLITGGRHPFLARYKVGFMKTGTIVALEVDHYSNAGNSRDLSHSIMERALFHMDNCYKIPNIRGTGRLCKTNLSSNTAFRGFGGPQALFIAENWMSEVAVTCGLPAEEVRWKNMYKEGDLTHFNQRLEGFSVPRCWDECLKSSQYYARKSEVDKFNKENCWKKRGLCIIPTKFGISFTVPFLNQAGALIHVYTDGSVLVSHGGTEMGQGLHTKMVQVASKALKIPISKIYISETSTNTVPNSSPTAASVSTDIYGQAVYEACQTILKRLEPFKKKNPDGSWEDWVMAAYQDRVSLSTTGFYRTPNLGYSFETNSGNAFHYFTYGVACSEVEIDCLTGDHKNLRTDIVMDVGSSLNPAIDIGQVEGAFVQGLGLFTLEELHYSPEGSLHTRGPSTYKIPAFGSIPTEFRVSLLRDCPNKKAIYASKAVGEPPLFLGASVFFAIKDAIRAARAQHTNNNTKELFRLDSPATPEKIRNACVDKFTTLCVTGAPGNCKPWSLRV

P2Y purinoceptor 12, sequence (Q9H244 whole entry): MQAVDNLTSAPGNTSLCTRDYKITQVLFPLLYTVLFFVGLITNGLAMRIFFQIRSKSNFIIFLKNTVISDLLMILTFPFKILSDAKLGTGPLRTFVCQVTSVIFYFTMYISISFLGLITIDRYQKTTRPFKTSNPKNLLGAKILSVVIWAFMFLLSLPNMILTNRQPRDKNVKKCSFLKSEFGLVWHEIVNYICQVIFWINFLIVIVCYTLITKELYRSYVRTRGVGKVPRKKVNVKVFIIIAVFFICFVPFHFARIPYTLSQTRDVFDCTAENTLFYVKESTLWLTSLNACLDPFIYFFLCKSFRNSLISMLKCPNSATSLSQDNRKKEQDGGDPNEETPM

CCOC(=O)c1c(C)nc(-c2ccccc2)n1OC
IC50 (Plasma): > 30 µM

C=CCOn1c(-c2cccc(C#N)c2)nc(C)c1C(=O)OCC
IC50 (Plasma): 5.86 µM

CCOC(=O)c1c(C)nc(-c2cccc(C#N)c2)n1OCc1ccc(C)cc1
IC50 (Plasma): 6.31 µM

CCOC(=O)c1c(C)nc(-c2cccc(C#N)c2)n1O
IC50 (Plasma): 17.6 µM

CCOC(=O)COn1c(-c2cccc(C#N)c2)nc(C)c1C(=O)OCC
IC50 (Plasma): 6.8 µM

CCOC(=O)c1c(C)nc(-c2cccc(C#N)c2)n1OCc1ccccc1
IC50 (Plasma): 5.93 µM

C=CCOn1c(-c2cccc(C#N)c2)nc(C)c1C(=O)O
IC50 (Plasma): 6.35 µM

CCOC(=O)c1c(C)nc(-c2cccc(C#N)c2)n1OCc1ccc([N+](=O)[O-])cc1
IC50 (Plasma): 8.75 µM

CCOC(=O)c1c(C)nc(-c2ccc(OCC(C)C)c(C#N)c2)n1O
IC50 (Plasma): 16.8 µM

Cc1nc(-c2cccc(C#N)c2)n(OCc2ccccc2)c1C(=O)O
IC50 (Plasma): 6.24 µM

CCOCCOn1c(-c2cccc(C#N)c2)nc(C)c1C(=O)OCC
IC50 (Plasma): 6.25 µM

CCOC(=O)c1c(C)nc(-c2cccc(C#N)c2)n1OCC(N)=O
IC50 (Plasma): > 30 µM

Cc1ccc(COn2c(-c3cccc(C#N)c3)nc(C)c2C(=O)O)cc1
IC50 (Plasma): 6.56 µM

CCOC(=O)c1c(C)nc(-c2cccc(C#N)c2)n1OCCC(=O)O
IC50 (Plasma): > 30 µM

CCOC(=O)c1c(C)nc(-c2cccc(C#N)c2)n1OCc1ccc(C(=O)OC)cc1
IC50 (Plasma): 9.47 µM

Cc1nc(-c2ccc(OCC(C)C)c(C#N)c2)n(O)c1C(=O)O
IC50 (Plasma): 15.7 µM

CCOC(=O)c1c(C)nc(-c2cccc(C#N)c2)n1OC
IC50 (Plasma): 9.13 µM

CNc1nc(Cl)nc2c1ncn2CC(COC(=O)C(C)(C)C)COC(=O)C(C)(C)C
IC50 (P2Y purinoceptor 12): 176 µM

CCOC(=O)c1c(C)nc(-c2cccc(C#N)c2)n1OCc1ccncc1
IC50 (Plasma): 6.2 µM

CCOC(=O)c1c(C)nc(-c2cccc(C#N)c2)n1OCc1ccc(OC)cc1
IC50 (Plasma): 6.83 µM

CCOC(=O)c1c(C)nc(-c2cccc(C#N)c2)n1OCCCO
IC50 (Plasma): 11.4 µM

CC(C)(C)c1ccccc1Oc1ncccc1NC(=O)Nc1ccc(OC(F)(F)F)cc1
IC50 (Plasma): 5.54 µM
IC50 [1]: 3.03 µM

CCOC(=O)c1c(C)nc(-c2ccc(C#N)cc2)n1OC
IC50 (Plasma): 13.4 µM

CCCSc1nc(N[C@@H]2C[C@H]2c2ccc(F)c(F)c2)c2nnn([C@@H]3C[C@H](OCCO)[C@@H](O)[C@H]3O)c2n1 [TICAGRELOR]
IC50 (Plasma): 7.21 µM
Time [2]: 120 min
IC50 (P2Y purinoceptor 12): 5.14 µM
Activity (Rattus norvegicus): 39.2%
Activity [3]: 3.89 g
inhibition at 10 µM [4]: < 50%

COn1c(-c2cccc(C#N)c2)nc(C)c1C(=O)O
IC50 (Plasma): 7.99 µM

CCOC(=O)c1c(C)nc(-c2cccc(C#N)c2)n1C(C)C
IC50 (Plasma): 9.26 µM

CCOC(=O)c1c(C)nc(-c2cccc(C#N)c2)n1OCc1ccccc1C#N
IC50 (Plasma): 9.38 µM

CCOC(=O)c1c(C)nc(-c2cccc(C#N)c2)n1OCc1ccc(F)cc1
IC50 (Plasma): 5.88 µM

CCOC(=O)c1c(C)nc(-c2cccc(C#N)c2)n1OCc1cccc(Cl)c1
IC50 (Plasma): 19.4 µM

CCOC(=O)c1[nH]c(-c2cccc(C#N)c2)nc1C
IC50 (Plasma): > 30 µM

CCOC(=O)c1c(C)nc(-c2cccc(C#N)c2)n1OCc1cccc(F)c1
IC50 (Plasma): 22.4 µM

CCOC(=O)c1c(C)nc(-c2cccc(C#N)c2)n1OCc1ccccc1Cl
IC50 (Plasma): 8.71 µM

CCOC(=O)c1c(C)nc(-c2cccc(C#N)c2)n1OCc1cccc(C#N)c1
IC50 (Plasma): > 30 µM

CCOC(=O)c1c(C)nc(-c2cccc(C#N)c2)n1OCc1ccccc1F
IC50 (Plasma): 8.99 µM

CCOC(=O)c1c(C)nc(-c2cccc(C#N)c2)n1OCc1ccc(Br)cc1
IC50 (Plasma): 24.6 µM

CCOC(=O)c1c(C)nc(-c2cccc(C#N)c2)n1OCc1ccc(Cl)cc1
IC50 (Plasma): 6.83 µM

CCOC(=O)c1c(C)nc(-c2ccccc2C#N)n1OC
IC50 (Plasma): 14.9 µM

CCOC(=O)c1c(C)nc(-c2cccc(C#N)c2)n1OC(C)C
IC50 (Plasma): 6.74 µM

CCOC(=O)c1c(C)nc(-c2cccc(C#N)c2)n1C
IC50 (Plasma): 22.1 µM
